Like-named read-outs stand apart in the source and are kept apart here.
How the values were obtained:
[1] = Cytotoxicity in HepG2 cells, Resazurin assay; details: human, HepG2 cells, TOX-HepG2-4 d CC50 (μM), HepG2 cells incubated for 4 days, viability by Resazurin assay
HBV = test: anti HBV activity, HepG2.117 cell line, intracellular HBV DNA by realtime PCR; type: cell-based; details: HepG2.117 cell line (Tet-off), 3 days of treatment, intracellular HBV DNA quantified by realtime PCR, read-out: HBV-AVE-HepG2.117 EC50
How it was run: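 Readout was intracellular HBV DNA by real-time PCR (HBV-specific primers and probe) after 3 days of compound exposure. Serial dilutions were tested in duplicate on HepG2.117 cells, a stable inducible HBV producer in which replication is switched on when doxycycline is absent.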

[2] = Hepatitis B virus, HepG2.117, 72 h

| Compound | melting point [°C] | CC50 at 4 days [1] [µM] | EC50 (HBV; [2]) [µM] | EC50 (HBV) [µM] |
| --- | --- | --- | --- | --- |
| Cn1cc2c(c1C(=O)Nc1ccc(F)c(C(F)F)c1)OC[C@@H](C(C)(C)O)NS2(=O)=O [Compound 101, (3S)—N-[3-(difluoromethyl)-4-fluoro-phenyl]-3-(1-hydroxy-1-methyl-ethyl)-7-methyl-1,1-dioxo-3,4-dihydro-2H-pyrrolo[3,4-b][1,4,5]oxathiazepine-6-carboxamide] | 214.4 | > 25 | 0.014 |  |
| Cc1cccc(C2(C)COc3c(cn(C)c3C(=O)Nc3ccc(F)c(C(F)F)c3)S(=O)(=O)N2)n1 (racemic) [Compound 177, N-[3-(difluoromethyl)-4-fluoro-phenyl]-3,7-dimethyl-3-(6-methyl-2-pyridyl)-1,1-dioxo-2,4-dihydropyrrolo[3,4-b][1,4,5]oxathiazepine-6-carboxamide] | 210.2 | > 25 | 0.008 |  |
| Cn1ccnc1CC1(C)COc2c(cn(C)c2C(=O)Nc2ccc(F)c(F)c2)S(=O)(=O)N1 (stereo not drawn) [Compound 173, N-(3,4-difluorophenyl)-3,7-dimethyl-3-[(1-methylimidazol-2-yl)methyl]-1,1-dioxo-2,4-dihydropyrrolo[3,4-b][1,4,5]oxathiazepine-6-carboxamide] | 297.1 | > 25 | 0.017 |  |
| Cc1cccc(C2(C)COc3c(cn(C)c3C(=O)Nc3ccc(F)c(F)c3)S(=O)(=O)N2)n1 (single isomer, unassigned) [Compound 168a, N-(3,4-difluorophenyl)-3,7-dimethyl-3-(6-methyl-2-pyridyl)-1,1-dioxo-2,4-dihydropyrrolo[3,4-b][1,4,5]oxathiazepine-6-carboxamide] | 221.9 | > 25 |  | > 0.125 |
| Cn1cc2c(c1C(=O)Nc1ccc(F)c(C#N)c1)OC[C@@H](C(C)(C)O)NS2(=O)=O [Compound 107, (3S)—N-(3-cyano-4-fluoro-phenyl)-3-(1-hydroxy-1-methyl-ethyl)-7-methyl-1,1-dioxo-3,4-dihydro-2H-pyrrolo[3,4-b][1,4,5]oxathiazepine-6-carboxamide] | 259.8 | > 25 | 0.08 |  |
| Cn1cncc1CC1(C)COc2c(cn(C)c2C(=O)Nc2ccc(F)c(F)c2)S(=O)(=O)N1 (stereo not drawn) [Compound 174, N-(3,4-difluorophenyl)-3,7-dimethyl-3-[(3-methylimidazol-4-yl)methyl]-1,1-dioxo-2,4-dihydropyrrolo[3,4-b][1,4,5]oxathiazepine-6-carboxamide] | 265.5 | > 25 | 0.007 |  |
| Cn1cc2c(c1C(=O)Nc1ccc(F)c(F)c1)OCC(C)(c1ccccc1)NS2(=O)=O (stereo not drawn) [Compound 125, N-(3,4-difluorophenyl)-3,7-dimethyl-1,1-dioxo-3-phenyl-2,4-dihydropyrrolo[3,4-b][1,4,5]oxathiazepine-6-carboxamide] | 256.6 | > 25 | 0.007 |  |
| Cn1cc2c(c1C(=O)Nc1ccc(F)c(F)c1)C=CCNS2(=O)=O [Compound 9, N-(3,4-difluorophenyl)-7-methyl-1,1-dioxo-2,3-dihydropyrrolo[3,4-f]-thiazepine-6-carboxamide] | 221.9 | > 25 | 0.036 |  |
| Cn1cc2c(c1C(=O)Nc1ccc(F)c(F)c1)OC[C@@H](C(C)(C)O)NS2(=O)=O [Compound 94, (3S)—N-(3,4-difluorophenyl)-3-(1-hydroxy-1-methyl-ethyl)-7-methyl-1,1-dioxo-3,4-dihydro-2H-pyrrolo[3,4-b][1,4,5]oxathiazepine-6-carboxamide] | 234.1 | > 25 | 0.08 |  |
| Cn1cc2c(c1C(=O)Nc1ccc(F)c(C#N)c1)OC[C@H](C(C)(C)O)NS2(=O)=O [Compound 106, (3R)—N-(3-cyano-4-fluoro-phenyl)-3-(1-hydroxy-1-methyl-ethyl)-7-methyl-1,1-dioxo-3,4-dihydro-2H-pyrrolo[3,4-b][1,4,5]oxathiazepine-6-carboxamide] | 260.1 | > 25 | 0.008 |  |
| Cn1cc2c(c1C(=O)Nc1ccc(F)c(C(F)F)c1)OC[C@](C)(c1ccccn1)NS2(=O)=O [Compound 169, (3S)—N-[3-(difluoromethyl)-4-fluoro-phenyl]-3,7-dimethyl-1,1-dioxo-3-(2-pyridyl)-2,4-dihydropyrrolo[3,4-b][1,4,5]oxathiazepine-6-carboxamide] | 208.8 | > 25 | 0.017 |  |
| C[C@H](O)[C@H]1C=Cc2c(cn(C)c2C(=O)Nc2ccc(F)c(C(F)F)c2)S(=O)(=O)N1 [Compound 96, (3R)—N-[3-(difluoromethyl)-4-fluoro-phenyl]-3-[(1S)-1-hydroxyethyl]-7-methyl-1,1-dioxo-2,3-dihydropyrrolo[3,4-f]thiazepine-6-carboxamide] | 182.3 | > 25 | 0.005 |  |
| Cn1cc2c(c1C(=O)Nc1ccc(F)c(F)c1)OCC(C)(c1ncco1)NS2(=O)=O (single isomer, unassigned) [Compound 160a, N-(3,4-difluorophenyl)-3,7-dimethyl-3-oxazol-2-yl-1,1-dioxo-2,4-dihydropyrrolo[3,4-b][1,4,5]oxathiazepine-6-carboxamide] | 239.5 | > 25 |  | 0.077 |
| Cn1cc2c(c1C(=O)Nc1ccc(F)c(Cl)c1)OCC(C)(Cc1cccnc1)NS2(=O)=O (stereo not drawn) [Compound 211, N-(3-chloro-4-fluoro-phenyl)-3,7-dimethyl-1,1-dioxo-3-(3-pyridylmethyl)-2,4-dihydropyrrolo[3,4-b][1,4,5]oxathiazepine-6-carboxamide] | 211.5 | > 25 | 0.007 |  |
| Cn1cc2c(c1C(=O)Nc1ccc(F)c(F)c1)OCC(C)(Cc1ccc(Br)nc1)NS2(=O)=O (stereo not drawn) [Compound 171, 3-[(6-bromo-3-pyridyl)methyl]-N-(3,4-difluorophenyl)-3,7-dimethyl-1,1-dioxo-2,4-dihydropyrrolo[3,4-b][1,4,5]oxathiazepine-6-carboxamide] | 259.2 | > 25 | 0.008 |  |
| Cn1cc2c(c1C(=O)Nc1ccnc(Cl)c1)OC[C@H](C(C)(C)O)NS2(=O)=O [Compound 146, (3R)—N-(2-chloro-4-pyridyl)-3-(1-hydroxy-1-methyl-ethyl)-7-methyl-1,1-dioxo-3,4-dihydro-2H-pyrrolo[3,4-b][1,4,5]oxathiazepine-6-carboxamide] | 246.6 | > 25 | 0.055 |  |
| Cn1cc2c(c1C(=O)Nc1ccc(F)c(F)c1)OCC(C)(Cc1cccnc1)NS2(=O)=O (racemic) [Compound 199, N-(3,4-difluorophenyl)-3,7-dimethyl-1,1-dioxo-3-(3-pyridylmethyl)-2,4-dihydropyrrolo[3,4-b][1,4,5]oxathiazepine-6-carboxamide] | 268.3 | > 25 | 0.015 |  |
| Cn1cc2c(c1C(=O)Nc1ccc(F)c(F)c1)OC[C@@](C)(c1ccccn1)NS2(=O)=O [Compound 126, (3R)—N-(3,4-difluorophenyl)-3,7-dimethyl-1,1-dioxo-3-(2-pyridyl)-2,4-dihydropyrrolo[3,4-b][1,4,5]oxathiazepine-6-carboxamide] | 270.5 | > 25 | 0.062 |  |
| Cn1ccc(C2(C)COc3c(cn(C)c3C(=O)Nc3ccc(F)c(F)c3)S(=O)(=O)N2)n1 (single isomer, unassigned) [Compound 192a, N-(3,4-difluorophenyl)-3,7-dimethyl-3-(1-methylpyrazol-3-yl)-1,1-dioxo-2,4-dihydropyrrolo[3,4-b][1,4,5]oxathiazepine-6-carboxamide] | 208.7 | > 25 | 0.036 |  |
| Cn1cc2c(c1C(=O)Nc1ccc(F)c(F)c1)OCC(C)(c1cnccn1)NS2(=O)=O (single isomer, unassigned) [Compound 145a, N-(3,4-difluorophenyl)-3,7-dimethyl-1,1-dioxo-3-pyrazin-2-yl-2,4-dihydropyrrolo[3,4-b][1,4,5]oxathiazepine-6-carboxamide] | 199.4 | > 25 |  | 0.014 |
| Cn1cc2c(c1C(=O)Nc1ccc(F)c(F)c1)OCC(C)(Cc1ccncc1)NS2(=O)=O (stereo not drawn) [Compound 191, N-(3,4-difluorophenyl)-3,7-dimethyl-1,1-dioxo-3-(4-pyridylmethyl)-2,4-dihydropyrrolo[3,4-b][1,4,5]oxathiazepine-6-carboxamide] | 276 | > 25 | 0.01 |  |
| Cn1cc2c(c1C(=O)Nc1ccc(F)c(F)c1)CC(O)CNS2(=O)=O (stereo not drawn) [Compound 68, N-(3,4-difluorophenyl)-4-hydroxy-7-methyl-1,1-dioxo-2,3,4,5-tetrahydropyrrolo[3,4-f]thiazepine-6-carboxamide] | 229 | > 25 | 0.23 |  |
| Cn1cc2c(c1C(=O)Nc1ccc(F)c(F)c1)CC[C@H](C(C)(C)O)NS2(=O)=O [Compound 102, (3R)—N-(3,4-difluorophenyl)-3-(1-hydroxy-1-methyl-ethyl)-7-methyl-1,1-dioxo-2,3,4,5-tetrahydropyrrolo[3,4-f]thiazepine-6-carboxamide] | 218.2 | > 25 | 0.009 |  |

From patent US10875876B2, “Cyclized sulfamoylarylamide derivatives and the use thereof as medicaments for the treatment of hepatitis B” (priority 2015, dated 2020)
